Assay results taken from US20200022998A1, “MEDICAL USE OF NOTCH4 OR INHIBITORS THEREOF” (BEIJING INSTITUTE OF GENOMICS, CHINESE ACADEMY OF SCIENCES, priority 2016, published 2020).

Columns and labels:
normal iPSC BC1 = experiment: in vitro megakaryocyte lineage differentiation of iPSC BC1 (spin-EB), flow cytometry at Day 14; format: cell-based, human
Description: BC1 cell line was cultured in E8 medium, under the culture condition of 37° C., 5% CO2, and was passaged at (1:5)-(1:10) every 3-4 days depending on the concentration of cells. The cells were incubated in 0.5 mM EDTA, at room temperature for 2 min, and then were re-suspended and split up and down with E8 medium, and transferred to a culture dish that had been coated with Vitronectin one hour before.
During differentiation, spin-embryoid body (spin-EB) method was used (Ng E S, Davis R, Stanley E G, Elefanty A G, A protocol describing the use of a recombinant protein-based, animal product-free medium (APEL) for human embryonic stem cell differentiation as spin embryoid bodies, Nat Protoc. 2008; 3(5): 768-76.). At Day 0 (D0) after differentiation, iPSCs reached a confluence of above 85% (confluence refers to the percentage of the surface of a culture dish that is covered by adherent cells). After digestion with Accutase at 37° C. for 3 min, the cells were neutralized and split in SFM medium (50% IMDM, 50% Ham's F12, and the added reagents and factors including: human albumin, monothioglycerol, Glutamax, Chemically Defined Lipid Concentrate, L-Ascorbic acid 2-phosphate sesquimagnesium salt hydrate, ITS-X), counted, and centrifuged. After the cells were re-suspended in SFM, cytokines, i.e. 10 μM ROCK inhibitor (Rho-associated protein kinase inhibitor), 10 ng/ml bFGF, and 10 ng/ml BMP4, were added. Cells were seeded to a round-bottom 96-well plate, at 3000 or 5000 cells/50 μl for each well (3000 or 5000 cells were seeded to each well, in a volume of 50 μl for each well). At Day 2, 50 μl SFM medium+10 ng/ml bFGF+10 ng/ml BMP4+100 ng/ml SCF+20 ng/ml VEGF was added to each well. At Day 5, Day 8, and Day 11, 50 μl SFM medium+10 ng/ml bFGF+10 ng/ml BMP4+50 ng/ml SCF+10 ng/ml VEGF was added to each well, wherein 100 μl old medium was pipetted off at Day 8, and 10 ng/ml thrombopoietin (TPO) was added to each well at Day 11.
At Day 14 (D14), single cells (suspending cells) surrounding embryoid bodies (EBs) were collected. The cells were used in the following flow cytometry.
The cell surface markers (CD34, CD45, CD41, CD42) of the collected cells were detected by flow cytometer. The assay was as followed.
The detection was carried out in four tubes: the first tube was a negative tube that was not labeled with any flow antibody; the second tube was labelled with two antibodies CD34-APC and CD45-PE; the third tube was labeled with CD34-APC and CD41-PE; and the fourth tube was labeled with CD41-PE and CD42-APC, wherein CD34^+CD45^+represented the population of hematopoietic stem/progenitor cells (HSPCs), CD34^+CD41^+ represented the population of megakaryocyte progenitor cells (MKPs), and CD41^+CD42^+ represented the population of mature megakaryocytes (MKs).
(1) The BC1 cell line used was the same as the one used in Example 1, and was divided into three groups, wherein two 96-well plates were used for each group, and the cells were seeded at 5000 cells/50 μl to each well. In vitro differentiation was carried out by reference to the steps in Example 1, wherein the step of adding a drug was carried out in accordance with the following steps in I-III groups:
I. At Day 0 after differentiation, 10 μM RO4929097 was added, and DMSO was added to the control well.
III. At Day 2 after differentiation, 10 μM RO4929097, 10 μM L-685458, and 10 μM DAPT were added, respectively; in addition, at Day 5 after differentiation, 10 μM RO4929097, 10 μM L-685458, and 10 μM DAPT were added, respectively.
(2) The cells were collected for flow cytometry analysis, and as to the steps, please refer to the Example 1 above. […]
I. At Day 0 after differentiation, 10 μM RO4929097, and 10 μM DAPT were added, respectively.
II. At Day 2 after differentiation, 10 μM RO4929097, and 10 μM DAPT were added, respectively.
III. At Day 5 after differentiation, 10 μM RO4929097, and 10 μM DAPT were added, respectively.
IV. […]

[1] = system: umbilical cord blood-derived CD34+ cells; experiment: in vitro megakaryocyte lineage differentiation of umbilical cord blood-derived CD34+ cells, flow cytometry; format: cell-based, human; conditions: 10 μM; cells collected at D14; FIG. 14
Description: (1) CD34^+ cells in umbilical cord blood were obtained by Ficoll-Paque PLUS density gradient centrifugation and magnetic bead sorting using CD34 MicroBead Kit. As to the particular steps, please refer to (GE Healthcare Life Sciences, http://www.gelifesciences.com), (Miltenyi Biotec, http://www.miltenyibiotec.com.cn).
(2) Differentiation of umbilical cord blood-derived CD34^+ cells into megakaryocytes: umbilical cord blood-derived CD34^+ cells were counted, and seeded at 1*10^6 cells to 4 ml StemSpan™ SFEM 11+50 ng/ml SCF+50 ng/ml TPO+50 ng/ml IL-6+20 ng/ml IL-3 in a 12-well plate, with 1 ml medium for each well, and four wells in total, to which 10 μM R04929097, 10 μM L-685458, 10 μM DAPT, and the same volume of DMSO as control were added, respectively, and the time was recorded as Day 0. The liquid was changed every 3 days, and the culture condition was 37° C., 5% CO2. After incubation for 6 days, the cell density was high, and the cells in each well were divided into two wells of a 12-well plate, with 2 ml medium for each well. The inhibitors were added at the same concnetrations as described above. The cells were collected at D14, counted, and detected for cell surface markers (CD41, CD42, CD61) by flow cytometer.
As to the collection of umbilical cord blood-derived CD34^+ cells, in vitro megakaryocytic differentiation and detection, please refer to Example 4-1.

For `CC(C)C[C@H](NC(=O)[C@H](Cc1ccccc1)C[C@@H](O)[C@H](Cc1ccccc1)NC(=O)OC(C)(C)C)C(=O)N[C@@H](Cc1ccccc1)C(N)=O` [L-685458], the “increase of proportion of mature megakaryocytes produced vs DMSO control” value (normal iPSC BC1; 5 μM added at Day 2, FIG. 6) was 21%, the “decrease of proportion of HSPCs (CD34+CD45+) vs DMSO control” value (normal iPSC BC1; 10 μM added at Day 2, FIG. 7A) was 27% and the “proportion of MKPs (CD34+CD41+) produced, increased fold vs DMSO control (set as 1)” value (normal iPSC BC1; 10 μM added at Day 2, FIG. 7A) was “about 1.5 folds”. The “proportion of mature megakaryocytes MKs (CD41+CD42+) produced, increased fold vs DMSO control (set as 1)” value (normal iPSC BC1; 10 μM added at Day 2, FIG. 7A) was “about 2.3 folds”, the “proportion of HSPCs produced, increased fold vs DMSO control (set as 1)” value (normal iPSC BC1; 10 μM added at Day 5, FIG. 7B) was “about 1.5 folds” and the “proportion of MKPs produced, increased fold vs DMSO control (set as 1)” value (normal iPSC BC1; 10 μM added at Day 5, FIG. 7B) was “about 1.2 folds”. For the same compound, the “proportion of mature megakaryocytes MKs produced, increased fold vs DMSO control (set as 1)” value (normal iPSC BC1; 10 μM added at Day 5, FIG. 7B) was “about 3.8 folds”, the “total number of hematopoietic cells, increase vs control group” value (normal iPSC BC1; 10 μM added at Day 5, FIG. 7B) was 2.3 folds and the “production of megakaryocyte progenitor cells and/or mature megakaryocytes in vitro” value (normal iPSC BC1; screen in the in vitro differentiation system of stem cells) was “significantly promote”. For the same compound, the “proportion of mature megakaryocyte (CD61+), increase vs control group” value [1] was 2.4 folds and the “proportion of mature megakaryocytes MK (CD41+CD42+) produced, increase vs control group” value [1] was 2.3 folds.
